Reference: patent US6835755B1, “Naphthoquinone derivatives and their use in the treatment and control of tuberculosis” (priority 1999, dated 2004)
Converted amounts (≈) assume the structure as drawn.

Test system: resistant strains of Mycobacterium tuberculosis
Experiment: microbe, parasite or virus in culture
Format: cell-based
Conditions: for ΔGI values of plant extracts: at MIC, mean ± s.d.

SMILES | ΔGI values of plant extracts (Two drug (isoniazid and rifampicin) resistant strain CCKO28469V) | MIC (Minimal inhibitory concentration) (Two drug (isoniazid and rifampicin) resistant strain CCKO28469V, radiometric method) [µg/mL] | ΔGI values of plant extracts (2 drug resistant strain (res. to isoniazid and rifampicin)) [mg/mL] | ΔGI values of plant extracts (3 drug resistant strain (res. to streptomycin, isoniazid and ethambutol)) [mg/mL] | MIC (3 drug resistant strain (res. to streptomycin, isoniazid and ethambutol), radiometric method) [µg/mL] | ΔGI values of plant extracts (4 drug resistant strain (res. to streptomycin, isoniazid, rifampicin and ethambutol)) [mg/mL] | MIC (4 drug resistant strain (res. to streptomycin, isoniazid, rifampicin and ethambutol), radiometric method) [µg/mL] | ΔGI values of plant extracts (5 drug resistant strain (res to isoniazid, streptomycin, rifampicin, thiacetazone and cyclocerine)) [mg/mL] | MIC (5 drug resistant strain (res to isoniazid, streptomycin, rifampicin, thiacetazone and cyclocerine), radiometric method) [µg/mL] | ΔGI values of plant extracts (6 drug resistant strain (res. to isoniazid, rifampicin, ethionamide, terizidone, thiacetazone and ofloxacin)) [mg/mL] | MIC (6 drug resistant strain (res. to isoniazid, rifampicin, ethionamide, terizidone, thiacetazone and ofloxacin), radiometric method) [µg/mL] | ΔGI values of plant extracts (7 drug resistant strain (res to isoniazid, streptomycin, ethambutol, kanamycin, rifampicin, and ethionamide)) [mg/mL] | MIC (7 drug resistant strain (res to isoniazid, streptomycin, ethambutol, kanamycin, rifampicin, and ethionamide), radiometric method) [µg/mL] | MIC (Mycobacterium tuberculosis) [µg/mL]
Cc1cc(O)c2c(c1)C(=O)C=CC2=O [7-methyljuglone, 5-hydroxy-7-methyl-1,4-naphtoquinone] | 0 ± 0 | 50 (≈ 266 µM) |  |  |  |  |  |  |  |  |  |  |  | 
Cc1cc(O)c2c(c1)C(=O)C(c1c(C)cc3c(c1O)C(=O)C=CC3=O)=CC2=O [diospyrin, 5,5′ dihydroxy 7,7′ binaphthoquinone] |  |  | 3.5 | 4 ± 2.12 | 100 (≈ 267 µM) | 5 ± 2.82 | 100 (≈ 267 µM) | 10 ± 1.41 | 100 (≈ 267 µM) | 9 ± 2.82 | 100 (≈ 267 µM) | 13.5 ± 3.2 | 100 (≈ 267 µM) | 100 (≈ 267 µM)
